Measurements: patent publication US6096338A, “Delivery systems for hydrophobic drugs” (R. P. Scherer Corporation, priority 1994, dated 2000)
≈ marks a conversion by molar mass, not a printed value. Where two headings read alike, the source gives them in different places. One block for each compound: values may come before it.

Legend:
[1] = Aqueous solubility of hydrophobic drugs in simulated intestinal fluid with bile and lipolytic products; format: physicochemical; conditions: pH 6.5
Protocol: As stated above, the aqueous solubilities of hydrophobic drugs can be increased by incorporation into mixed micelles, formed by bile salts and lipolytic products of triglyceride oil digestion.
An aqueous medium was prepared to simulate the intestinal environment using the following components:
100 mls pH 6.5 Tris-maleate buffer solution containing:
The medium was prepared as described in the in vitro test procedure described above. To this simulated intestinal fluid a series of different components were added to evaluate the enhancement of the aqueous solubility of a range of hydrophobic drugs. The components which were added were:
Experiment (i) Nothing (control experiment)
15 mM crude ox gallbladder bile
15 mM crude ox gallbladder bile +
500 mg of medium chain lipolytic
products (137 mg capric acid, 98 mg
glyceryl monocaprate, 151 mg
caprylic acid and 114 mg glyceryl
500 mg of long chain lipolytic
products (307 mg oleic acid and
193 mg glyceryl monooleate). […]
Then 100 mg of drug, in powder form, was added to the reaction medium, the pH was adjusted to 6.5 and the medium was mixed for 21/2 hours. At this time a sample was taken from the vessel, filtered through a 0.2 micron filter and the quantity of drug in solution in the simulated intestinal fluid was determined by a specific HPLC method.

[2] = Aqueous solubility of progesterone in buffer, bile and lipolytic products; format: physicochemical; conditions: for solubility at 1 h / solubility at 2 h: pH 6.5, 37° C.; for solubility at 1 h: read-out: Progesterone solubility after 60 minutes; for solubility at 2 h: read-out: Progesterone solubility after 120 minutes
Protocol: The solubility of progesterone was determined as follows:
The following five aqueous media were each prepared at 37° C. in the pH-Stat reaction vessel. The pH of each solution was adjusted to exactly 6.50 by the addition of an appropriate volume of 1.0 molar sodium hydroxide solution. […]
pH 6.50 tris-maleate buffer solution (containing 5 mM calcium chloride and 150 mM sodium chloride) pH 6.50 tris-maleate buffer solution+15 mM ox bile pH 6.50 tris-maleate buffer solution+15 mM ox bile+0.5% hydrophilic surfactant (Cremophor RH40) pH 6.50 tris-maleate buffer solution+15 mM ox bile+medium chain lipolytic products viz 53% by weight of caprylic acid-monocaprylate (2:1 molar ratio) and 47% by weight of capric acid-monocaprate (2:1 molar ratio) […]
pH 6.50 tris maleate buffer solution+15 mM ox bile+0.5% long chain lipolytic products viz oleic acid and monoolein (2:1 molar ratio) The following procedures was performed in triplicate. 15 mls of each of the above aqueous media were added to approximately 20 mgs (excess) of progesterone in 21 ml glass vials. Each vial was whirlmixed and then maintained at 37° C. in an ultrasonic bath for 120 minutes. After 60 and 120 minutes, 3 ml of each solution were extracted for progesterone solubility determination by HPLC, using the following standard procedure:
Each sample is filtered through a 13 mm 0.2 μm PVDF syringe filter (supplied by Whatman®). The first 1.5 ml of filtrate is discarded. 0.8 ml of the remaining filtrate is combined with 0.8 ml of acetonitrile (the mobile phase) in an amber glass vial. The vial is then hermetically sealed and shaken by hand and then analysed.

Pancreatic lipase = experiment: In vitro lipolysis test (pH-stat titration) of fractionated coconut oil (FCO) with hydrophilic and lipophilic surfactants; format: biochemical; conditions: FCO with Cremophor RH40 and lipophilic surfactant; FIG. 2
Text: In Vitro Test for Determining the Suitability of Hydrophilic and Lipophilic Surfactants
Pancreatic lipase in the presence of colipase catalyses the lipolysis (also termed hydrolysis or de-esterification) of emulsified oils, a process that results in the production of fatty acids. The rate of fatty acid generation, and thus a measure of the rate of lipolysis, can be followed via continuous titration with a pH-stat as described below.
The pH-stat should comprise, for example, a pH-meter, an autoburette and an autotitration unit. These instruments can be obtained from Radiometer A/S, Copenhagen, Denmark as product numbers PHM82, ABU80 and TTT80, respectively.
The reaction should be performed in a glass thermostatted vessel maintained at 37.5±0.5° C. This vessel should have an internal diameter of approximately 7.5 cm and a height of approximately 7.0 cm. During an experiment the reaction vessel should be placed beneath the titration assembly unit so that the tips of the pH-electrodes and the stirrer are all at least 1 cm beneath the liquid level. […]
At time=30 minutes, titrate the pH up to precisely 6.50 (e.g. using 1.0M NaOH using the autotitrator). Record the volume of titrant dispensed, then re-zero the titrant display reading on the autotitrator. […]

[3] = Buffer + 15 mM ox bile + 0.5% MCLPs

Buffer solubility [1]: below the detection limit of assay
SMILES: CC(C)(Sc1cc(C(C)(C)C)c(O)c(C(C)(C)C)c1)Sc1cc(C(C)(C)C)c(O)c(C(C)(C)C)c1 [Probucol, probucol]

Further increase in solubility with long chain lipolytic products ([2]; 0.5% long chain lipolytic products, vs bile salts): approximately 3 fold
Further increase in solubility with medium chain lipolytic products ([2]; 0.5% medium chain lipolytic products, vs bile salts): approximately 3 fold
solubility at 1 h ([2]; Buffer + 15 mM bile): 46.6 ± 0.47 µg/mL
solubility at 2 h ([2]; Buffer + 15 mM bile): 45.5 ± 1.08 µg/mL
solubility at 1 h ([2]; Buffer + 15 mM ox bile + 0.5% LCLPs): 153 ± 6.17 µg/mL
solubility at 1 h [2, 3]: 136 ± 11 µg/mL
solubility at 2 h [2, 3]: 142 ± 6.31 µg/mL
solubility at 1 h ([2]; aqueous buffer, Buffer alone): 10.1 ± 0.25 µg/mL (≈ 32.1 µM)
solubility at 2 h ([2]; aqueous buffer, Buffer alone): 9.47 ± 1.16 µg/mL (≈ 30.1 µM)
Increase in solubility in bile salts compared to buffer alone ([2]; bile salts vs buffer alone): approximately 4.5 fold
SMILES: CC(=O)[C@H]1CC[C@H]2[C@@H]3CCC4=CC(=O)CC[C@]4(C)[C@H]3CC[C@]12C [Progesterone, progesterone]

SMILES: CCCCCCCC/C=C\CCCCCCCC(=O)O [oleic acid]
Ability to overcome inhibitory effects of Cremophor RH40 on rate of FCO lipolysis (Pancreatic lipase): capable of overcoming the inhibitory effects
